Measured values: US20240148821A1, “PHARMACEUTICAL USE OF CYCLIC PEPTIDE COMPOUND” (CHUGAI SEIYAKU KABUSHIKI KAISHA, priority 2021, published 2024)
Numbered stars: 1 amine (or outer) side, 2 acyl side, 3 side chain; on linkers, the order of the positions; unused ones are H or OH. Bridge positions count the residues as written; N and C are the ends. Square brackets hold non-standard residues; d marks the D form. Peptide text beside a SMILES is read from it. * marks the point of attachment. hPhe(3,5-F2-4-CF3) = N[C@@H](CCc1cc(F)c(C(F)(F)F)c(F)c1)C(=O)O; hPhe(3-Cl-4-CF3) = N[C@@H](CCc1ccc(C(F)(F)F)c(Cl)c1)C(=O)O; hPhe(3-F,4-CF3) = N[C@@H](CCc1ccc(C(F)(F)F)c(F)c1)C(=O)O; NMePhe(4-CF3) = CN[C@@H](Cc1ccc(C(F)(F)F)cc1)C(=O)O; NEtPhe(4-Me) = CCN[C@@H](Cc1ccc(C)cc1)C(=O)O; NMeAbu(4,4,4-F3) = CN[C@@H](CC(F)(F)F)C(=O)O; NMePhe(4-Cl) = CN[C@@H](Cc1ccc(Cl)cc1)C(=O)O; NMePhe(4-Me) = CN[C@@H](Cc1ccc(C)cc1)C(=O)O; NMeNle(6-CHF2) = CN[C@@H](CCCCC(F)F)C(=O)O; NMedβ3hAla = C[C@H](CC(=O)[*:2])N(C)[*:1]; NMeGly(cPent) = CN[C@H](C(=O)O)C1CCCC1; NMeGly(cBu) = CN[C@H](C(=O)O)C1CCC1; NMeCha = CN[C@@H](CC1CCCCC1)C(=O)O; Hyp = O=C(O)[C@@H]1C[C@@H](O)CN1; NMeChg = CN[C@H](C(=O)O)C1CCCCC1; NMeI = CC[C@H](C)[C@H](NC)C(=O)O; NMeD = CN[C@@H](CC(=O)O)C(=O)O; NMeL = CN[C@@H](CC(C)C)C(=O)O; Chg = N[C@H](C(=O)O)C1CCCCC1; NMeNva = CCC[C@H](NC)C(=O)O; NMeV = CN[C@H](C(=O)O)C(C)C; Morpholide = C1CN(*)CCO1; NMeA = CN[C@@H](C)C(=O)O; NMeAib = CNC(C)(C)C(=O)O; Piperidide = C1CCN(*)CC1; Pyrrolidide = C1CCN(*)C1; Ac5c = NC1(C(=O)O)CCCC1; Aze = O=C(O)[C@@H]1CCN1; NEtG = CCNCC(=O)O; Sar = CNCC(=O)O

Key:
[1] = target: protein-protein interaction between Kras and SOS1 (biotin-tagged human Kras loaded with GDP, His-tagged human SOS1) (Homo sapiens (Human), UniProt P01116, G12D); test: Protein-protein interaction inhibition between Kras and SOS1 (KrasG12D-SOS PPI) using AlphaScreen; type: biochemical; conditions: AlphaScreen; biotin-tagged human Kras loaded with GDP, His-tagged human SOS1; read-out: KRAS G12D-SOS PPI IC50;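 further: kras produced in E. coli, Ni-coupled donor beads and streptavidin acceptor beads, excitation 680 nm with emission detected at 520–620 nm via singlet oxygen transfer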
[2] = tested on: Human pancreatic cancer cell line AsPC-1 (G12D mutation Kras); test: AsPC-1 cell growth inhibition (AsPC-1 CGI); type: cell-based; conditions: read-out: AsPC-1 cell growth inhibition, 50% growth inhibitory concentration (IC50 value); 96 hours, CellTiter-Glo, values classified in ranges

Row | Structure (SMILES) | IC50 [1] | IC50 [2]
1 | CC[C@H](C)[C@@H]1NC(=O)[C@H](CC(C)C)N(C)C(=O)C[C@@H](C(=O)N(C)C)N(C)C(=O)[C@H]([C@@H](C)CC)N(C)C(=O)C2(CCCC2)NC(=O)[C@@H]2CCCN2C(=O)[C@H](CCc2ccc(C(F)(F)F)c(Cl)c2)NC(=O)CN(CC)C(=O)[C@H](Cc2ccc(C)cc2)N(C)C(=O)[C@@H]2CCN2C(=O)[C@H](C)N(C)C1=O [Compound 1120] ([NMeL]I[NMeA][Aze][NMePhe(4-Me)][NEtG][hPhe(3-Cl-4-CF3)]P[Ac5c][NMeI][NMeD]-NMe2; lactam N-11) | 2.5 nM | ≤ 20 nM
2 | CC[C@H](C)[C@@H]1NC(=O)[C@H](CC(C)C)N(C)C(=O)C[C@@H](C(=O)N2CCCCC2)N(C)C(=O)[C@H](CCCCC(F)F)N(C)C(=O)C2(CCCC2)NC(=O)[C@@H]2CCCN2C(=O)[C@H](CCc2ccc(C(F)(F)F)c(Cl)c2)NC(=O)CN(C)C(=O)[C@H](CC2CCCCC2)N(C)C(=O)[C@@H]2CCN2C(=O)[C@H](C)N(C)C1=O [Compound 1123] ([NMeL]I[NMeA][Aze][NMeCha][Sar][hPhe(3-Cl-4-CF3)]P[Ac5c][NMeNle(6-CHF2)][NMeD]-Piperidide; lactam N-11) | 180 nM | > 500 nM
3 | CC[C@H](C)[C@@H]1NC(=O)[C@H](C)N(C)C(=O)C[C@@H](C(=O)N2CCCCC2)N(C)C(=O)[C@H](C(C)C)N(C)C(=O)C2(CCCC2)NC(=O)[C@H](Cc2ccccc2)NC(=O)[C@H](CCc2ccc(C(F)(F)F)c(Cl)c2)NC(=O)CN(C)C(=O)[C@H](CC2CCCCC2)N(C)C(=O)CN(C)C(=O)CN(C)C1=O [Compound 1125] ([NMeA]I[Sar][Sar][NMeCha][Sar][hPhe(3-Cl-4-CF3)]F[Ac5c][NMeV][NMeD]-Piperidide; lactam N-11) | 2.5 nM | > 500 nM
4 | CCC[C@H]1C(=O)N[C@@H]([C@@H](C)CC)C(=O)N(C)[C@@H](C)C(=O)N2CC[C@H]2C(=O)N(C)[C@@H](CC2CCCCC2)C(=O)N(C)CC(=O)N[C@@H](CCc2ccc(C(F)(F)F)c(Cl)c2)C(=O)N2CCC[C@H]2C(=O)NC2(CCCC2)C(=O)N(C)[C@@H]([C@@H](C)CC)C(=O)N(C)[C@H](C(=O)N2CCCCC2)CC(=O)N1C [Compound 1132] ([NMeNva]I[NMeA][Aze][NMeCha][Sar][hPhe(3-Cl-4-CF3)]P[Ac5c][NMeI][NMeD]-Piperidide; lactam N-11) | 1.3 nM | ≤ 20 nM
5 | CC(C)C[C@@H]1NC(=O)C(C)(C)N(C)C(=O)[C@H](CC(C)C)NC(=O)[C@H](CCc2ccc(C(F)(F)F)c(F)c2)NC(=O)CN(C)C(=O)[C@H](Cc2ccc(Cl)cc2)N(C)C(=O)CN(C)C(=O)CN(C)C(=O)[C@H](C2CCCCC2)NC(=O)[C@H](CC(C)C)N(C)C(=O)C[C@@H](C)N(C)C1=O [Compound 1133] (cyclo([Chg][Sar][Sar][NMePhe(4-Cl)][Sar][hPhe(3-F,4-CF3)]L[NMeAib]L[NMedβ3hAla][NMeL])) | 56 nM | > 500 nM
6 | CCO[C@@H]1C[C@H]2C(=O)NC3(CCCC3)C(=O)N(C)[C@@H](C3CCCCC3)C(=O)N(C)[C@H](C(=O)N3CCCC3)CC(=O)N(C)[C@@H](C3CCC3)C(=O)N[C@@H]([C@@H](C)CC)C(=O)N(C)CC(=O)N(C)CC(=O)N(C)[C@@H](CC3CCCCC3)C(=O)N(C)CC(=O)N[C@@H](CCc3cc(F)c(C(F)(F)F)c(F)c3)C(=O)N2C1 [Compound 1144] ([NMeGly(cBu)]I[Sar][Sar][NMeCha][Sar][hPhe(3,5-F2-4-CF3)][Hyp](Et)[Ac5c][NMeChg][NMeD]-Pyrrolidide; lactam N-11) | 0.49 nM | ≤ 20 nM
7 | CCO[C@@H]1C[C@H]2C(=O)NC3(CCCC3)C(=O)N(C)[C@@H](C3CCCCC3)C(=O)N(C)[C@H](C(=O)N3CCCC3)CC(=O)N(C)[C@@H](CC(F)(F)F)C(=O)N[C@@H]([C@@H](C)CC)C(=O)N(C)CC(=O)N(C)CC(=O)N(C)[C@@H](CC3CCCCC3)C(=O)N(C)CC(=O)N[C@@H](CCc3cc(F)c(C(F)(F)F)c(F)c3)C(=O)N2C1 [Compound 1149] ([NMeAbu(4,4,4-F3)]I[Sar][Sar][NMeCha][Sar][hPhe(3,5-F2-4-CF3)][Hyp](Et)[Ac5c][NMeChg][NMeD]-Pyrrolidide; lactam N-11) | 0.62 nM | ≤ 20 nM
8 | CC[C@H](C)[C@@H]1NC(=O)[C@H](CC(C)C)N(C)C(=O)C[C@@H](C(=O)N2CCOCC2)N(C)C(=O)[C@H]([C@@H](C)CC)N(C)C(=O)C2(CCCC2)NC(=O)[C@@H]2CCCN2C(=O)[C@H](CCc2ccc(C(F)(F)F)c(Cl)c2)NC(=O)CN(CC)C(=O)[C@H](Cc2ccc(C(F)(F)F)cc2)N(C)C(=O)[C@@H]2CCN2C(=O)[C@H](C)N(C)C1=O [Compound 1151] ([NMeL]I[NMeA][Aze][NMePhe(4-CF3)][NEtG][hPhe(3-Cl-4-CF3)]P[Ac5c][NMeI][NMeD]-Morpholide; lactam N-11) | 5.2 nM | ≤ 20 nM
9 | CC[C@H](C)[C@@H]1NC(=O)[C@H](CC(C)C)N(C)C(=O)C[C@@H](C(=O)N(C)C)N(C)C(=O)[C@H](C2CCCC2)N(C)C(=O)C2(CCCC2)NC(=O)[C@@H]2CCCN2C(=O)[C@H](CCc2ccc(C(F)(F)F)c(F)c2)NC(=O)CN(C)C(=O)[C@H](Cc2ccc(C)cc2)N(CC)C(=O)[C@@H]2CCN2C(=O)[C@H](C)N(C)C1=O [Compound 1152] ([NMeL]I[NMeA][Aze][NEtPhe(4-Me)][Sar][hPhe(3-F,4-CF3)]P[Ac5c][NMeGly(cPent)][NMeD]-NMe2; lactam N-11) | 1.2 nM | ≤ 20 nM
